Literature values in publication PMC4549746, “Zearalenone in the Intestinal Tissues of Immature Gilts Exposed per os to Mycotoxins” (Toxins, 2015).

Parameters: method as in PMID 15972077
Settings: animal feed naturally contaminated with ZEN and α-ZEL; cited from earlier work

C[C@H]1CCCC(=O)CCC/C=C/c2cc(O)cc(O)c2C(=O)O1 [ZEN, zearalenone]
absorbed from the duodenum: 65%
